Assay results reported in patent publication US8129592B2, “Plant isoflavonoid hydroxylases and methods of use thereof” (The Samuel Roberts Noble Foundation, Inc., priority 2003, dated 2012).
Marks after values point to notes of the source that are not given here.

Assays:
I2′H (MtCYP81E7) = target: T1, I2′H (MtCYP81E7) (Medicago truncatula, UniProt Q6WNR0); assay: Hydroxylase assay with yeast microsomes expressing recombinant MtCYP81E7 (I2′H); assay type: biochemical; details: for Substrate specificity of I2′H (MtCYP81E7), relative activity: 100% = biochanin A, a = sum of putative 2′ and/or 3′-hydroxylated products, ND = activities not detectable
T1 construct: The open reading frame of MtCYP81E7 was amplified with forward primer; made in house; host or cells: Saccharomyces cerevisiae WAT11, vector YeDP60; microsomal fraction
T1 sequence (Q6WNR0 1-498): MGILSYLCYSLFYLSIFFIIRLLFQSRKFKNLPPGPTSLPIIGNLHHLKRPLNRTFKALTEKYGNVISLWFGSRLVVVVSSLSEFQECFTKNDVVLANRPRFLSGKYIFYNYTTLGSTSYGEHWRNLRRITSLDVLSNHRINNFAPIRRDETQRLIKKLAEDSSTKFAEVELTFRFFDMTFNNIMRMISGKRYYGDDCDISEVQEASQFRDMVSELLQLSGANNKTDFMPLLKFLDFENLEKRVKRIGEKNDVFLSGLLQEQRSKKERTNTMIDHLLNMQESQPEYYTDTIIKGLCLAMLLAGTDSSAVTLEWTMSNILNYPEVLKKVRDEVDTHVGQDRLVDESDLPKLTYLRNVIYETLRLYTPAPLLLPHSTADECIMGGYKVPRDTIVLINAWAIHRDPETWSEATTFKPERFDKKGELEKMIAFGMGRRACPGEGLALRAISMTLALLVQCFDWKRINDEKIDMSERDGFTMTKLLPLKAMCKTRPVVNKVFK
Experimental: (§1) PCR products were digested with BamHI and KpnI and ligated into the yeast expression vector YeDP60 following BamHI/KpnI digestion. MtCYP81E8 was directly excised from the original clone in pBSK(+) by BamHI and KpnI and inserted into YeDP60. All constructs were sequenced to ensure that there were no PCR-introduced errors. […] After induction with 20% galactose for ˜18 h, yeast cells was harvested, weighed, and immediately processed for microsomal fractionation.
(§2) After incubation at ˜80 rpm for 30 to 40 min, spheroplasts were centrifuged down for 5 min, washed twice with Zymolyase buffer B, and then twice with phosphate buffer A (0.1 M potassium phosphate pH 8.0, 1 M sorbitol, 14 mM 2-mercaptoethanol). The spheroplasts were re-suspended in a minimum vol of phosphate buffer B (0.1 M potassium phosphate pH 8.0, 0.4 M sucrose, 14 mM β-mercaptoethanol, 1 mM PMSF and 1× […] (Roche Diagnostics GmbH, Mannheim, German), and 1 vol of glass beads (diameter at 0.45/0.50 mm) was added. Samples were vigorously vortexed at 4° C., with the quality of cell disruption checked under the microscope. The supernatant was then removed and the beads washed four times with phosphate buffer B. Supernatants were pooled and centrifuged at 12,000 g for 10 min; the resulting supernatant was then ultracentrifuged at 140,000 g for 90 min. The supernatant was discarded and the pellet washed briefly with phosphate buffer C (0.1 M potassium phosphate, pH 8.0, 0.4 M sucrose, 0.5 mM glutathione), and re-suspended in the same buffer plus 5% glycerol at about 12 mg total protein/ml. Protein was quantified using a Bio-Rad protein assay kit (Bio-Rad, Hercules, Calif.).
(§3) Hydroxylase assays were performed in phosphate buffer C in a total volume of 150 μl containing 2 mM NADPH, 40 μM isoflavone substrate and 40˜70 pmol P450 protein. […] The extracts were combined, evaporated under N2, re-suspended in 60 μl of methanol, and analyzed by HPLC or LC-MS. All assays to determine enzyme specificity were carried out in duplicate. For kinetic studies, the isoflavone concentration was varied at a fixed concentration of NADPH (2 mM), and kinetic constants calculated from initial rate data using Lineweaver-Burke double reciprocal plots. All kinetic analyses were carried out in triplicate.
(§4) Reaction products from enzyme assays (30 μl) were analyzed by HPLC.
(§5) Product identification was firstly based on comparisons of chromatographic behavior and UV spectra with authentic standards. Identifications were then confirmed by HPLC-MS, using a HP 1100 liquid chromatograph coupled to a Bruker Esquire Ion-Trap mass spectrometer equipped with an electrospray source. HPLC separation was achieved using a J. T. Baker Bakerbond reverse-phase column (C18, 5 μm, 4.6 mm×250 mm, J. T. Baker, Philipsberg, N.J.). Samples were eluted with the gradient described above but with 0.1% aqueous acetic acid replacing the 1% phosphoric acid. Ion charge control was set at 30,000 with a max acquire time of 100 ms. Mass spectra were recorded over a range of 50-2200 m/z.

I3′H (MtCYP81E9) = target: T2, I3′H (MtCYP81E9) (Medicago truncatula, UniProt Q6WNQ9); assay: Hydroxylase assay with yeast microsomes expressing recombinant MtCYP81E9 (I3′H); assay type: biochemical; details: for Substrate specificity of I3′H (MtCYP81E9), relative activity: 100% = biochanin A, a = sum of putative 2′ and/or 3′-hydroxylated products, b = sum of all the products, ND = activities not detectable
T2 construct: made in house; host or cells: Saccharomyces cerevisiae WAT11, vector YeDP60; microsomal fraction
T2 sequence (Q6WNQ9 with tags, fused parts or gaps limits assumed): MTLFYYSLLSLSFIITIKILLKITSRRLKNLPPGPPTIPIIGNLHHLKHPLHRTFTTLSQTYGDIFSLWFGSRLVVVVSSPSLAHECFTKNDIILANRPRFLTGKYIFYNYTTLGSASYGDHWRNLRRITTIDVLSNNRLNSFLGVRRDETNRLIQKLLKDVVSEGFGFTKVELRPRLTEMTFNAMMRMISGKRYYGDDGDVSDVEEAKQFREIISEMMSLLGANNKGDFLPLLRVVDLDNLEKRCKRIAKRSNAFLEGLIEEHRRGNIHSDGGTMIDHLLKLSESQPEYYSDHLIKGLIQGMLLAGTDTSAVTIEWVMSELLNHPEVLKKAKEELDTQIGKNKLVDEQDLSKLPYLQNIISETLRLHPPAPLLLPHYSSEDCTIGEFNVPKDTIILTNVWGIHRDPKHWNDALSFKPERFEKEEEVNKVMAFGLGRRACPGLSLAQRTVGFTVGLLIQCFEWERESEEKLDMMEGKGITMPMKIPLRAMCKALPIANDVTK
Experimental: as §1, §2, §3, §4, §5

MtCYP81E8 = target: T3, MtCYP81E8 (Medicago truncatula, UniProt Q6WNQ8); assay: Hydroxylase assay with yeast microsomes expressing recombinant MtCYP81E8; assay type: biochemical; details: standard assay conditions, or at different pH values and NADPH concentrations
T3 construct: The full length CYP81E8 cDNA was directly excised from its original clone; made in house; host or cells: Saccharomyces cerevisiae WAT11, vector YeDP60; microsomal fraction
T3 sequence (Q6WNQ8 1-499): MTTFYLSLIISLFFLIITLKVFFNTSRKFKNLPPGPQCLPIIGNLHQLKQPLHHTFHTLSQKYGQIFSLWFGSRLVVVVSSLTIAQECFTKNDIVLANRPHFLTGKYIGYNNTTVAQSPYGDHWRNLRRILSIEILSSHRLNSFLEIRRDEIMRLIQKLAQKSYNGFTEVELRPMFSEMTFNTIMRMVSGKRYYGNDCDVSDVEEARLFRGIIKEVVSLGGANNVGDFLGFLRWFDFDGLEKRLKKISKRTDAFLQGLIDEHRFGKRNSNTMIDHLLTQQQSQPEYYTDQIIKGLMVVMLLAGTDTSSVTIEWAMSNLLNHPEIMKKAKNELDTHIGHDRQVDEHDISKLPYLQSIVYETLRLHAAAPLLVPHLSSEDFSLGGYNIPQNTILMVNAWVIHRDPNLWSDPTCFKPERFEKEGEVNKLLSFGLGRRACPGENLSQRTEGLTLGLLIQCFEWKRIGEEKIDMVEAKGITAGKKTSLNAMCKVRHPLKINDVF
Experimental: as §1, §2, §3, §4

[1] = substrate: COc1ccc(-c2coc3cc(O)ccc3c2=O)cc1; assay: Hydroxylase assay with yeast microsomes expressing recombinant MtCYP81E7 (I2′H); assay type: biochemical, Medicago truncatula; details: other: 2 mM NADPH and pH 8.0, 25.0 °C
Experimental: (§6) After incubation at ˜80 rpm for 30 to 40 min, spheroplasts were centrifuged down for 5 min, washed twice with Zymolyase buffer B, and then twice with phosphate buffer A (0.1 M potassium phosphate pH 8.0, 1 M sorbitol, 14 mM 2-mercaptoethanol). The spheroplasts were re-suspended in a minimum vol of phosphate buffer B (0.1 M potassium phosphate pH 8.0, 0.4 M sucrose, 14 mM β-mercaptoethanol, 1 mM PMSF and 1× protein inhibitor cocktail (Roche Diagnostics GmbH, Mannheim, German), and 1 vol of glass beads (diameter at 0.45/0.50 mm) was added. Samples were vigorously vortexed at 4° C., with the quality of cell disruption checked under the microscope. The supernatant was then removed and the beads washed four times with phosphate buffer B. Supernatants were pooled and centrifuged at 12,000 g for 10 min; the resulting supernatant was then ultracentrifuged at 140,000 g for 90 min. The supernatant was discarded and the pellet washed briefly with phosphate buffer C (0.1 M potassium phosphate, pH 8.0, 0.4 M sucrose, 0.5 mM glutathione), and re-suspended in the same buffer plus 5% glycerol at about 12 mg total protein/ml. Protein was quantified using a Bio-Rad protein assay kit (Bio-Rad, Hercules, Calif.).
(§7) Hydroxylase assays were performed in phosphate buffer C in a total volume of 150 μl containing 2 mM NADPH, 40 μM isoflavone substrate and 40˜70 pmol P450 protein. Reactions were incubated at 25° C. for 1.5 h (over which period the reactions were linear) with gentle shaking and stopped by extracting twice with 500 μl of ethyl acetate. The extracts were combined, evaporated under N2, re-suspended in 60 μl of methanol, and analyzed by HPLC or LC-MS. All assays to determine enzyme specificity were carried out in duplicate. For kinetic studies, the isoflavone concentration was varied at a fixed concentration of NADPH (2 mM), and kinetic constants calculated from initial rate data using Lineweaver-Burke double reciprocal plots. All kinetic analyses were carried out in triplicate.
(§8) Product identification was firstly based on comparisons of chromatographic behavior and UV spectra with authentic standards. Identifications were then confirmed by HPLC-MS, using a HP 1100 liquid chromatograph coupled to a Bruker Esquire Ion-Trap mass spectrometer equipped with an electrospray source. HPLC separation was achieved using a J. T. Baker Bakerbond reverse-phase column (C18, 5 μm, 4.6 mm×250 mm, J. T. Baker, Philipsberg, N.J.). […] Mass spectra were recorded over a range of 50-2200 m/z.

[2] = substrate: COc1ccc(-c2coc3cc(O)cc(O)c3c2=O)cc1; assay: as above; assay type: biochemical, Medicago truncatula; details: other: 2 mM NADPH and pH 8.0, 25.0 °C
Experimental: as §6, §7, §8

Row | Molecule | Activity of MtI2′H with substrate (in words) (I2′H (MtCYP81E7)) | Activity of MtI3′H with substrate (in words) (I3′H (MtCYP81E9)) | Substrate specificity of I2′H (MtCYP81E7), relative activity (I2′H (MtCYP81E7); isoflavone 40 μM) | Substrate specificity of I3′H (MtCYP81E9), relative activity (I3′H (MtCYP81E9); isoflavone 40 μM) | other results
1 | COc1cc(O)c2c(=O)c(-c3ccc(O)cc3)coc2c1 [Prunetin] | Neither enzyme hydroxylated | Neither enzyme hydroxylated | – | – | –
2 | COc1ccc(-c2coc3cc(O)ccc3c2=O)c(O)c1 [2′-Hydroxyformononetin] | negligible activity | more active | 9.1%^a | 39.34%^b | –
3 | O=c1c(-c2ccc3c(c2)OCO3)coc2cc(O)ccc12 [Pseudobaptigenin] | active | low activity | 35% | 7.6%^a | –
4 | O=C1C[C@@H](c2ccc(O)cc2)Oc2cc(O)ccc21 [liquiritigenin] | – | – | – | – | Activity of recombinant MtCYP81E8 with substrate (in words) (MtCYP81E8): no activity
5 | COc1ccc(-c2coc3cc(O)ccc3c2=O)cc1O [3′-Hydroxyformononetin] | negligible activity | – | 4.7% | – | –
6 | NADPH | – | – | – | – | Km (I2′H (MtCYP81E7); read-out: apparent KM value of MtCYP81E7 for NADPH): ~0.17 µM
7 | O=c1cc(-c2ccc(O)cc2)oc2cc(O)cc(O)c12 [apigenin] | – | – | – | – | Activity of recombinant MtCYP81E8 with substrate (in words) (MtCYP81E8): no activity
8 | O=c1c(-c2ccc(O)cc2)coc2cc(O)cc(O)c12 [Genistein, 5,7,4′-trihydroxyisoflavone] | weak activity | – | 10.2%^a | 19.13%^a | –
9 | COc1ccc(-c2coc3cc(O)ccc3c2=O)cc1 [Formononetin, 7-hydroxy, 4′-methoxyisoflavone] | – | – | 37.2% | 50% | –
10 | O=c1c(-c2ccc(O)cc2)coc2cc(O)ccc12 [Daidzein, 7,4′-dihydroxyisoflavone] | weak activity | low activity | 18.6%^a | 1.73%^a | –
11 | COc1ccc2c(=O)c(-c3ccc(O)cc3)coc2c1 [Isoformononetin] | Neither enzyme hydroxylated | Neither enzyme hydroxylated | – | – | –
12 | COc1ccc(-c2coc3cc(O)cc(O)c3c2=O)cc1 [Biochanin A] | – | – | 100% | 100% | Activity corresponding to 100%, 2′-hydroxylation (I2′H (MtCYP81E7); isoflavone 40 μM, 2 mM NADPH): 53.8 pmol/pmol protein/h; Activity corresponding to 100%, 3′-hydroxylation (I3′H (MtCYP81E9); isoflavone 40 μM, 2 mM NADPH): 98.56 pmol pmol^−1 protein h^−1
13 | O=c1cc(-c2ccc(O)c(O)c2)oc2cc(O)cc(O)c12 [luteolin] | – | – | – | – | Activity of recombinant MtCYP81E8 with substrate (in words) (MtCYP81E8): no activity
14 | O=C1C[C@@H](c2ccc(O)cc2)Oc2cc(O)cc(O)c21 [narigenin] | – | – | – | – | Activity of recombinant MtCYP81E8 with substrate (in words) (MtCYP81E8): no activity
15 | I2′H (MtCYP81E7) (Medicago truncatula) (protein, The open reading frame of MtCYP81E7 was amplified with forward primer; made in house; host or cells: Saccharomyces cerevisiae WAT11, vector YeDP60; microsomal fraction) MGILSYLCYSLFYLSIFFIIRLLFQSRKFKNLPPGPTSLPIIGNLHHLKRPLNRTFKALTEKYGNVISLWFGSRLVVVVSSLSEFQECFTKNDVVLANRPRFLSGKYIFYNYTTLGSTSYGEHWRNLRRITSLDVLSNHRINNFAPIRRDETQRLIKKLAEDSSTKFAEVELTFRFFDMTFNNIMRMISGKRYYGDDCDISEVQEASQFRDMVSELLQLSGANNKTDFMPLLKFLDFENLEKRVKRIGEKNDVFLSGLLQEQRSKKERTNTMIDHLLNMQESQPEYYTDTIIKGLCLAMLLAGTDSSAVTLEWTMSNILNYPEVLKKVRDEVDTHVGQDRLVDESDLPKLTYLRNVIYETLRLYTPAPLLLPHSTADECIMGGYKVPRDTIVLINAWAIHRDPETWSEATTFKPERFDKKGELEKMIAFGMGRRACPGEGLALRAISMTLALLVQCFDWKRINDEKIDMSERDGFTMTKLLPLKAMCKTRPVVNKVFK | – | – | – | – | Km [1]: 67 µM; kcat [1]: 0.015 s⁻¹; Km [2]: 51 µM; kcat [2]: 0.033 s⁻¹
